In patent US8455550B2, “Derivatives of aminocyclobutane or aminocyclobutene, their method of preparation and their use as medical products” (Pierre Fabre Medicament, priority 2009, dated 2013):

Assays:
Male Sprague Dawley rats [1] = assay: Forced swimming test, antidepressant activity; format: in vivo, rat; settings: 40 mg/Kg ip, single administration 30 min before test; 5 min observation; FIG. 1
Description: The antidepressant activity of the compounds of the invention was evidenced by the forced swimming test in rats (Eur. J. Pharmacol. 1978, 47, 379). This model is widely used since it is predictive of antidepressant activity in man.
The rats (Male Sprague Dawley rats (ICO: OFA SD [IOPS], Iffa Credo, France), are placed in a cylinder (height 45 cm and diameter 20 cm) filled with water at 25° C.±0.5 up to a height of 17 cm. This height allows the rats to swim or float without their paws touching the bottom of the cylinder. 24 h before the test day, the rats are placed in the cylinder for 15 min, after which time they no longer attempt to escape and remain immobile. On the test day, the animals are put back in the cylinder and the duration of immobility of the animal is measured and monitored using audiovisual recording for 5 min. The products of the invention are administered via ip route 30 min before the test. A rat is considered to be immobile when it allows itself to float and only makes small movements to remain on the surface.

Male Sprague Dawley rats [2] = assay: Formaldehyde test, analgesic activity, late phase; format: in vivo, rat; settings: for Paw licking Score observed at 40 mg/Kg / Paw lifting Score observed at 40 mg/Kg: 40 mg/Kg ip 15 min before formaldehyde 2.5%, late phase 22.5-27.5 min, maximum score 10
Description: The analgesic activity of the formula (1) compounds and of milnacipran, chosen as reference compound, was determined using a conventional pain module in which formaldehyde is injected to cause a painful sensation in animals (Eur. J. Pharmacol. 2001, 421, 109). The rats (Male Sprague Dawley rats (ICO: OFA SD [IOPS], Iffa Credo, France) are placed in observation boxes in Plexiglas above an angled mirror to facilitate observation of their hind paws. After thirty minutes habituation, the animals are given an injection of formaldehyde diluted to 2.5% on the plantar surface of the right hind paw. The injection of formaldehyde produces behavioural responses which occur in two phases: • an early phase, 0 to 5 min after injection of formaldehyde, corresponding to stimulation of the receptors specialized in the transmission of nociceptive stimuli. • a late phase which occurs between 20 and 30 min after injection. This phase corresponds to the stimulation of receptors by inflammatory mediators and/or to hyperexcitability of the dorsal horn induced during the first phase. This later phase therefore involves central sensitization and causes pain more representative of neuropathic pain compared with the pain which occurs during the first phase. On this account, only the results obtained in this later phase are taken into consideration in the present application. To study the compounds of the invention, we selected two expressions of painful behaviour (paw licking, lifting of injected paw) and chose as observation period the period which corresponds to the late phase (i.e. 22.5-27.5 min). During this 5 min phase, the animals are observed every 30 s and the following behaviours are recorded: licking or non-licking of the injected hind paw and lifting or not of the injected hind paw. Ten observations give a maximum score of 10 for each parameter. The products of the invention are given via intra-peritoneal route 15 min before the injection of formaldehyde.

adult rat = assay: Ultrasonic vocalizations (USV) test, antistress/anxiolytic activity; format: in vivo; settings: 22 kHz vocalizations
Description: Antistress/anxiolytic activity was determined on a conventional model using ultrasonic vocalizations (USVs) emitted by an adult rat when subjected to stress (Eur. J. Pharmacol. 2003, 463, 133).
The experiments were conducted in standard operative cages (250×320×250 mm) insulated from noise and light. The floor of the cages is covered with a grid in stainless steel and connected to an electric shock generator delivering a fixed intensity of 0.4 mA. The device is provided on one of its walls with a light source (2 lux). The ULTRAVOX system (Noldus, Wageningen, Pays Bas) is used to record ultrasonic vocalizations at a frequency defined by an ultrasound detector, an audio-filter box and acquisition software. For this experiment, the capture frequency was set at 22 kHz. The software allows the recording of all vocalizations of 22 kHz lasting a time of more 100 ms emitted by the animals. The test starts with a habituation session of 11 min 25 s, during which the animals are individually placed in the operative device without being subjected to conditioning (neither light nor electric shock).
During a second phase, the animals are subjected to a conditioning phase of 3 sessions given over 3 consecutive days. […]

(±)-cis-N,N-diethyl (1-phenyl-2-aminomethyl)-cyclobutanecarboxamide [Compound 1a]
Duration of immobility (effect in words) (Male Sprague Dawley rats [1]): significantly decreasing the duration of immobility
Paw licking Score observed at 40 mg/Kg (Male Sprague Dawley rats [2]): 1.0 ± 0.4
Paw lifting Score observed at 40 mg/Kg (Male Sprague Dawley rats [2]): 3.7 ± 1.1
Paw lifting and paw licking in late phase (effect in words) (Male Sprague Dawley rats [2]; ip, late phase of formaldehyde test): significantly reduces both paw lifting and paw licking
Duration of USVs minimum significant dose (MSD) (adult rat): 10 mg/kg

CCN(CC)C(=O)[C@@]1(c2ccccc2)C[C@H]1CN (racemic) [milnacipran, cis-(±)-N,N-diethyl-(1-phenyl-2-aminomethyl)-cyclopropanecarboxamide, reference compound]
Duration of immobility (effect in words) (Male Sprague Dawley rats [1]): no effect
Paw licking Score observed at 40 mg/Kg (Male Sprague Dawley rats [2]): 2.0 ± 0.8
Paw lifting Score observed at 40 mg/Kg (Male Sprague Dawley rats [2]): 6.3 ± 1.4
Duration of USVs minimum significant dose (MSD) (adult rat): 10 mg/kg
